Reference: paper PMC7138817, “The [4Fe-4S] cluster of sulfurtransferase TtuA desulfurizes TtuB during tRNA modification in Thermus thermophilus” (Communications Biology, 2020)
The star is where a group is joined. thiocarboxylate = C-terminal -COSH in place of -COOH, S*

T1: holo-TtuA (Thermus thermophilus, UniProt Q72LF3)
T1 construct: TtuA without TtuB, prepared as in an earlier publication
T1 sequence (Q72LF3 1-321): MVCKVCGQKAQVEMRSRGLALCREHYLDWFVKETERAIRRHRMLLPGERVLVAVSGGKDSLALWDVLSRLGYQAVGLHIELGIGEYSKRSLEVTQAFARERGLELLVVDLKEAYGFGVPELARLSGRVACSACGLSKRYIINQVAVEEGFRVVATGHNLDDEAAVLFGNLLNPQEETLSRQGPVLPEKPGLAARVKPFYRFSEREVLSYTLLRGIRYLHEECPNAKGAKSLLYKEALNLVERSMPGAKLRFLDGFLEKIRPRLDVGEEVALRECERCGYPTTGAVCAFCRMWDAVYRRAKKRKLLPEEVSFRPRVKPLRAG

T2: holo-TtuA (purified alone, with [4Fe-4S] cluster) used for EPR with added TtuB-COSH (Thermus thermophilus, UniProt Q72LF3 1-321)
T2 construct: TtuA, Thermus thermophilus; carries a [4Fe-4S] cluster, reduced with sodium dithionite for EPR; also called DT-reduced TtuA; source: purified
T2 sequence (looked up): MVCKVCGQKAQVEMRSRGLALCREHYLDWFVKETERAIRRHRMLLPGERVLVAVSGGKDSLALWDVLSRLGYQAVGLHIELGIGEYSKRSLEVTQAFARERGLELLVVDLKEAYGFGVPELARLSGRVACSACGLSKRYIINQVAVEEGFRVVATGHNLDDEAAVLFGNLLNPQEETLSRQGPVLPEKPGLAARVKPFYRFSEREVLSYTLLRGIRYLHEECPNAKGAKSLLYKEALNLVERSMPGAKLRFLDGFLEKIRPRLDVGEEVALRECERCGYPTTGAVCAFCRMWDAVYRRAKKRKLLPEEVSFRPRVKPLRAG


Tests used:
holo-TtuA = molecular target: T1, holo-TtuA; experiment: EPR spectroscopy, X-band, […] K; type: binding; details: dithionite-reduced, anaerobic, no TtuB
[1] = molecular target: T3, holo-TthTtuA–TthTtuB complex (Thermus thermophilus, UniProt Q72LF3+Q72LF4); experiment: X-ray crystal structure, […] Å; type: binding; details: reconstituted with ferric chloride and sulfide, anaerobic; bound by three Cys of TtuA, unique Fe coordinated by C-terminal carboxylate of TtuB
T3 construct: gene ttuA; co-expressed in E. coli B834(DE3) from pETDuet-1; His6-tag plus four residues at N-terminus of TtuB, TtuA untagged; TtuB-COOH form; TtuA-TtuB heterodimers

[2] = molecular target: T2, holo-TtuA (purified alone, with …); experiment: EPR spectroscopy; purified holo-TtuA mixed with TtuB-COSH (molar ratio 1:3, 0.6 mM:2.0 mM), incubated at 298 K for 5 min, reduced with sodium dithionite, frozen; X-band spectra at 7, 12 and 29 K; compared with TtuA without TtuB-COSH; details: both partners purified

binding result [2] | Molecule | EPR spectroscopy, X-band, 12 K (holo-TtuA) | X-ray crystal structure, 2.2 Å [1]
– | [S]12[Fe]3[S]4[Fe]1[S]1[Fe]2[S]3[Fe]41 [[4Fe-4S] cluster] | TtuA in the absence of TtuB-COSH is the typical rhombic signal of the [4Fe-4S] cluster | unique Fe site of the [4Fe-4S] cluster and the C-terminus of TtuB was observed
binds | TtuB-COSH (TtuB with thiocarboxylated C-terminus) (natural protein, Thermus thermophilus, UniProt Q72LF4 1-65, looked up, TtuB, ubiquitin-like sulfur donor protein, Thermus thermophilus; also called thiocarboxylated TtuB) MRVVLRLPERKEVEVKGNRPLREVLEELGLNPETVVAVRGEELLTLEDEVREEDTLEVLSAISGG-thiocarboxylate | – | –
